Results: PubChem BioAssay (NCI)
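96-well plates; 48 h exposure; 5 concentrations. Endpoints by linear interpolation between flanking doses. Not reached: highest tested concentration assigned. Abbreviation: GI50, concentration required for 50% inhibition of growth. TGI marks complete inhibition of growth.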

Tests used:
Assay in all cases: growth of human tumour cells (NCI), 48 h
[1] = tested on: 786-0 renal
[2] = tested on: A498 renal
[3] = tested on: A549 NSCLC
[4] = tested on: ACHN renal
[5] = tested on: BT-549 breast
[6] = tested on: CAKI-1 renal
[7] = tested on: CCRF-CEM leukemia
[8] = tested on: COLO 205 colon
[9] = tested on: DU-145 prostate
[10] = tested on: EKVX NSCLC
[11] = tested on: HCC-2998 colon
[12] = tested on: HCT-116 colon
[13] = tested on: HCT-15 colon
[14] = tested on: HL-60(TB) leukemia
[15] = tested on: HOP-62 NSCLC
[16] = tested on: HOP-92 NSCLC
[17] = tested on: HS 578T breast
[18] = tested on: HT29 colon
[19] = tested on: IGROV1 ovarian
[20] = tested on: K-562 leukemia
[21] = tested on: KM12 colon
[22] = tested on: LOX IMVI melanoma
[23] = tested on: M14 melanoma
[24] = tested on: MALME-3M melanoma
[25] = tested on: MCF7 breast
[26] = tested on: MDA-MB-231 breast
[27] = tested on: MDA-MB-435
[28] = tested on: MOLT-4 leukemia
[29] = tested on: NCI-H226 lung
[30] = tested on: NCI-H23 lung
[31] = tested on: NCI-H460 lung
[32] = tested on: NCI-H522 lung
[33] = tested on: NCI/ADR-RES ovarian
[34] = tested on: OVCAR-3 ovarian
[35] = tested on: OVCAR-4 ovarian
[36] = tested on: OVCAR-5 ovarian
[37] = tested on: OVCAR-8 ovarian
[38] = tested on: PC-3 prostate
[39] = tested on: RPMI-8226 leukemia
[40] = tested on: RXF 393 renal
[41] = tested on: SF-268 CNS
[42] = tested on: SF-295 CNS
[43] = tested on: SF-539 CNS
[44] = tested on: SK-MEL-2 melanoma
[45] = tested on: SK-MEL-28 melanoma
[46] = tested on: SK-MEL-5 melanoma
[47] = tested on: SK-OV-3 ovarian
[48] = tested on: SN12C renal
[49] = tested on: SNB-19 CNS
[50] = tested on: SNB-75 CNS
[51] = tested on: SR leukemia
[52] = tested on: SW-620 colon
[53] = tested on: T-47D breast
[54] = tested on: TK-10 renal
[55] = tested on: U251 CNS
[56] = tested on: UACC-257 melanoma
[57] = tested on: UACC-62 melanoma
[58] = tested on: UO-31 renal

CCCN(CCC)c1ccc(C=O)cc1
GI50 [1]: 81 µM | TGI [1]: > 100 µM | GI50 [2]: 1.81 µM | TGI [2]: 4.15 µM | GI50 [3]: > 100 µM | TGI [3]: > 100 µM | GI50 [4]: 77.7 µM | TGI [4]: > 100 µM | GI50 [5]: 35.4 µM | TGI [5]: > 100 µM | GI50 [6]: 53.2 µM | TGI [6]: > 100 µM | GI50 [7]: 30.2 µM | TGI [7]: > 100 µM | GI50 [8]: > 77.6 µM | TGI [8]: > 100 µM | GI50 [9]: 46.7 µM | TGI [9]: > 100 µM | GI50 [10]: 30.2 µM | TGI [10]: > 100 µM | GI50 [11]: > 67.5 µM | TGI [11]: > 100 µM | GI50 [12]: 39.7 µM | TGI [12]: > 100 µM | GI50 [13]: > 84.2 µM | TGI [13]: > 100 µM | GI50 [14]: 27 µM | TGI [14]: > 84 µM | GI50 [15]: > 88 µM | TGI [15]: > 100 µM | GI50 [16]: 13 µM | TGI [16]: 66.2 µM | GI50 [17]: > 62.1 µM | TGI [17]: > 100 µM | GI50 [18]: 52 µM | TGI [18]: > 100 µM | GI50 [19]: > 84.4 µM | TGI [19]: > 100 µM | GI50 [20]: 25.7 µM | TGI [20]: > 100 µM | GI50 [21]: > 70.8 µM | TGI [21]: > 100 µM | GI50 [22]: 59.6 µM | TGI [22]: > 100 µM | GI50 [23]: > 100 µM | TGI [23]: > 100 µM | GI50 [24]: > 81.2 µM | TGI [24]: > 100 µM | GI50 [25]: 36 µM | TGI [25]: > 100 µM | GI50 [26]: > 100 µM | TGI [26]: > 100 µM | GI50 [27]: 39.7 µM | TGI [27]: > 100 µM | GI50 [28]: 29.8 µM | TGI [28]: > 100 µM | GI50 [29]: 30 µM | TGI [29]: > 100 µM | GI50 [30]: 36.9 µM | TGI [30]: > 100 µM | GI50 [31]: > 100 µM | TGI [31]: > 100 µM | GI50 [32]: 28 µM | TGI [32]: > 100 µM | GI50 [33]: 56.3 µM | TGI [33]: > 100 µM | GI50 [34]: 24.9 µM | TGI [34]: > 87.4 µM | GI50 [35]: 26.5 µM | TGI [35]: > 100 µM | GI50 [36]: > 100 µM | TGI [36]: > 100 µM | GI50 [37]: 61.9 µM | TGI [37]: > 100 µM | GI50 [38]: 38.1 µM | TGI [38]: > 100 µM | GI50 [39]: 54.5 µM | TGI [39]: > 100 µM | GI50 [40]: 72.2 µM | TGI [40]: > 100 µM | GI50 [41]: 53.2 µM | TGI [41]: > 100 µM | GI50 [42]: 34.2 µM | TGI [42]: > 100 µM | GI50 [43]: > 100 µM | TGI [43]: > 100 µM | GI50 [44]: 98.2 µM | TGI [44]: > 100 µM | GI50 [45]: > 100 µM | TGI [45]: > 100 µM | GI50 [46]: 20.7 µM | TGI [46]: 54.5 µM | GI50 [47]: > 100 µM | TGI [47]: > 100 µM | GI50 [48]: > 96.2 µM | TGI [48]: > 100 µM | GI50 [49]: 62 µM | TGI [49]: > 100 µM | GI50 [50]: 18.4 µM | TGI [50]: > 100 µM | GI50 [51]: 33.7 µM | TGI [51]: > 100 µM | GI50 [52]: 54.7 µM | TGI [52]: > 100 µM | GI50 [53]: 21.1 µM | TGI [53]: > 100 µM | GI50 [54]: 37.5 µM | TGI [54]: > 100 µM | GI50 [55]: 42 µM | TGI [55]: > 100 µM | GI50 [56]: 35 µM | TGI [56]: 98.2 µM | GI50 [57]: 42.8 µM | TGI [57]: > 100 µM | GI50 [58]: 36.2 µM | TGI [58]: > 100 µM

CCc1ccc(CCC(=O)Nc2ncc(Cc3cc(Cl)ccc3Cl)s2)o1
GI50 [1]: 2.7 µM | TGI [1]: > 50 µM | GI50 [2]: 1.19 µM | TGI [2]: 3.46 µM | GI50 [3]: 2.14 µM | TGI [3]: > 50 µM | GI50 [4]: 1.69 µM | TGI [4]: 11.6 µM | GI50 [5]: > 50 µM | TGI [5]: > 50 µM | GI50 [6]: 0.774 µM | TGI [6]: 12.1 µM | GI50 [7]: 0.843 µM | TGI [7]: > 50 µM | GI50 [8]: 1.26 µM | TGI [8]: 11 µM | GI50 [9]: 1.74 µM | TGI [9]: > 50 µM | GI50 [10]: 2.32 µM | TGI [10]: > 50 µM | GI50 [11]: 2.99 µM | TGI [11]: > 50 µM | GI50 [12]: 0.988 µM | TGI [12]: 9.1 µM | GI50 [13]: 0.508 µM | TGI [13]: > 50 µM | GI50 [14]: 0.887 µM | TGI [14]: 2.11 µM | GI50 [15]: 2.01 µM | TGI [15]: 16.9 µM | GI50 [16]: 2.08 µM | TGI [16]: > 50 µM | GI50 [17]: 1.29 µM | TGI [17]: 5.96 µM | GI50 [18]: 1.17 µM | TGI [18]: > 50 µM | GI50 [19]: 1.69 µM | TGI [19]: > 50 µM | GI50 [20]: 0.242 µM | TGI [20]: > 50 µM | GI50 [21]: 1.12 µM | TGI [21]: > 50 µM | GI50 [22]: 2.04 µM | TGI [22]: > 50 µM | GI50 [23]: 0.721 µM | TGI [23]: > 50 µM | GI50 [24]: 1.38 µM | TGI [24]: > 50 µM | GI50 [25]: 0.399 µM | TGI [25]: > 50 µM | GI50 [26]: 2.16 µM | TGI [26]: 15.6 µM | GI50 [27]: 0.15 µM | TGI [27]: 0.486 µM | GI50 [28]: 1.3 µM | TGI [28]: > 50 µM | GI50 [29]: 3.61 µM | TGI [29]: > 50 µM | GI50 [30]: 2.49 µM | TGI [30]: > 50 µM | GI50 [31]: 1.88 µM | TGI [31]: > 50 µM | GI50 [32]: 1.62 µM | TGI [32]: > 50 µM | GI50 [33]: 1.6 µM | TGI [33]: > 50 µM | GI50 [34]: 1.33 µM | TGI [34]: 4.76 µM | GI50 [35]: 1.78 µM | TGI [35]: 12.6 µM | GI50 [36]: 2.21 µM | TGI [36]: > 50 µM | GI50 [37]: 2.25 µM | TGI [37]: > 50 µM | GI50 [38]: 1.49 µM | TGI [38]: > 50 µM | GI50 [39]: 1.21 µM | TGI [39]: 6.92 µM | GI50 [40]: 1.19 µM | TGI [40]: 6.87 µM | GI50 [41]: 3.6 µM | TGI [41]: > 50 µM | GI50 [42]: 1.25 µM | TGI [42]: 7.17 µM | GI50 [43]: 1.26 µM | TGI [43]: 4.1 µM | GI50 [44]: 2.66 µM | TGI [44]: > 50 µM | GI50 [45]: 2.75 µM | TGI [45]: > 50 µM | GI50 [46]: 1.21 µM | TGI [46]: > 50 µM | GI50 [47]: 2.04 µM | TGI [47]: > 50 µM | GI50 [48]: 1.93 µM | TGI [48]: 36.9 µM | GI50 [49]: 1.87 µM | TGI [49]: 12.4 µM | GI50 [50]: 0.412 µM | TGI [50]: 2.4 µM | GI50 [51]: 0.22 µM | TGI [51]: 7.92 µM | GI50 [52]: 0.935 µM | TGI [52]: > 50 µM | GI50 [53]: 1.86 µM | TGI [53]: > 50 µM | GI50 [54]: 3.47 µM | TGI [54]: > 50 µM | GI50 [55]: 1.61 µM | TGI [55]: 11.7 µM | GI50 [57]: 1.49 µM | TGI [57]: > 50 µM | GI50 [58]: 1.86 µM | TGI [58]: 22.5 µM
